# Literature values, collected in patent US5908840A, “Hetero-biaryl-pyridoquinazolinone derivatives as anti-cancer agents” (American Cyanamid Company, priority 1997, dated 1999).
# Experiments:
# [1] = Denny et al.; Ebeid et al.
# [2] = Denny et al., Mutation Research 232: 233 (1990)
# P388 = conditions: Denny et al., Mutation Research 232: 233 (1990)
compound,measurement,setting,value
"CN(C)CCNC(=O)c1cccn2c(=O)c3ccccc3nc12 [I, N-[2-(dimethylamino)ethyl]-11-oxo-11H-pyrido[2,1-b]quinalzoline-6-carboxamide]",in vitro activity,[1],some in vitro activity
same,mutagenic activity,[2],mutagenic activity
same,activity in a P388 mouse model,P388,inactive
